Data: PMC7057854, “Adapting free energy perturbation simulations for large macrocyclic ligands: how to dissect contributions from direct binding and free ligand flexibility” (Chemical Science, 2020)

What was measured:
[1] = design: method as in earlier work; settings: octanol-water partitioning, received from literature; ref 3–5 (supplement); cited from earlier work
Source text: page 19: Table S8: Reference compounds used to establish a calibration curve for LogD determination.

[2] = HPLC-based LogD determination; settings: for tR (retention time used for LogD determination): HPLC-UV 254 nm, Nucleodur C18 Gravity, 50 mM ammonium acetate pH 7.4 (A) / acetonitrile (B), 0 min 0 % B to 20 min 95 % B, 1 mL/min, acetylated peptides, triplicates
[3] = target: T1, 14-3-3ζ full length His-tag (Homo sapiens, UniProt P63104); assay: biochemical; format: binding; settings: for BEI (binding efficiency index): BEI = pKd/(MW × 10^–3), pKd from direct FP of FITC-labelled peptides
T1 sequence (P63104 1-245): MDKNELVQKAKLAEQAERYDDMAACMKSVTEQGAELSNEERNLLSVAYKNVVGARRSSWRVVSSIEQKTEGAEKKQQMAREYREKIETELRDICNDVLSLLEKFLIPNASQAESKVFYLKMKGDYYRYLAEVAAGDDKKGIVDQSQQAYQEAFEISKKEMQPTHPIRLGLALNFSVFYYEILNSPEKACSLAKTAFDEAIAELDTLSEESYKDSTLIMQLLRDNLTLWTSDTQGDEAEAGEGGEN

[4] = target: T1, 14-3-3ζ full length His-tag; assay: biochemical

| Structure (SMILES) | tR (retention time used for LogD determination) [2] [min] | Kd [3] [µM] | chromatographic logD ([2]; pH 7.4) | other results |
| --- | --- | --- | --- | --- |
| COc1ccc([C@@H]2Sc3ccccc3N(CCN(C)C)C(=O)[C@@H]2OC(C)=O)cc1 [Diltiazem, reference compound] | 15.31±0.002 |  |  | LogD of reference compound [1]: 2.70 |
| CC(CCc1ccccc1)NCC(O)c1ccc(O)c(C(N)=O)c1 (stereo not drawn) [Labetolol, reference compound] | 12.14±0.010 |  |  |  |
| COCCc1ccc(OCC(O)CNC(C)C)cc1 (stereo not drawn) [Metoprolol, reference compound] | 10.21±0.024 |  |  | LogD of reference compound [1]: -0.06 |
| CC(C)C[C@H](NC(=O)[C@H](CC(=O)O)NC(=O)[C@H](CC(C)C)NC(=O)[C@]1(C)CCCCCCCC[C@@](C)(NC(=O)CNC(=O)[C@H](CCC(N)=O)NC(=O)COCCOCCNC(=S)Nc2ccc3c(c2)C(=O)OC32c3ccc(O)cc3Oc3cc(O)ccc32)C(=O)N[C@@H](CC(C)C)C(=O)N[C@@H](CC(=O)O)C(=O)N1)C(=O)N[C@@H](C)C(=O)N[C@@H](C)C(N)=O [S430A] |  | 0.072 ± 0.005 |  |  |
| CC(=O)N[C@@H](CCC(N)=O)C(=O)NCC(=O)N[C@]1(C)CCCCCCCC[C@@](C)(C(=O)N[C@@H](CC(C)C)C(=O)N[C@@H](CC(=O)O)C(=O)N[C@@H](CC(C)C)C(=O)N[C@@H](C)C(=O)N[C@@H](CO)C(N)=O)NC(=O)[C@H](CC(=O)O)NC(=O)[C@H](CC(C)C)NC1=O [compound 1] | 12.58±0.197 |  | 1.15 ± 0.068 |  |
| CC(C)C[C@H](NC(=O)[C@H](CC(=O)O)NC(=O)[C@H](CC(C)C)NC(=O)[C@]1(C)CCCCCCCC[C@@](C)(NC(=O)CNC(=O)[C@H](CCC(N)=O)NC(=O)COCCOCCNC(=S)Nc2ccc3c(c2)C(=O)OC32c3ccc(O)cc3Oc3cc(O)ccc32)C(=O)N[C@@H](CC(C)C)C(=O)N[C@@H](CC(=O)O)C(=O)N1)C(=O)N[C@@H](C)C(N)=O [compound 2] |  | 0.355 |  | BEI (binding efficiency index) [3]: 4.07 |
| CC(C)C[C@H](NC(=O)[C@H](CC(=O)O)NC(=O)[C@H](CC(C)C)NC(=O)[C@]1(C)CCCCCCCC[C@@](C)(NC(=O)CNC(=O)[C@H](CCC(N)=O)NC(=O)COCCOCCNC(=S)Nc2ccc3c(c2)C(=O)OC32c3ccc(O)cc3Oc3cc(O)ccc32)C(=O)N[C@@H](CC(C)C)C(=O)N[C@@H](CC(=O)O)C(=O)N1)C(N)=O [compound 3] |  | 2.88 |  | BEI (binding efficiency index) [3]: 3.66 |
| CC(C)C[C@@H]1NC(=O)[C@](C)(NC(=O)CNC(=O)[C@H](CCC(N)=O)NC(=O)COCCOCCNC(=S)Nc2ccc3c(c2)C(=O)OC32c3ccc(O)cc3Oc3cc(O)ccc32)CCCCCCCC[C@@](C)(C(=O)N[C@@H](CC(C)C)C(=O)N[C@@H](CC(=O)O)C(N)=O)NC(=O)[C@H](CC(=O)O)NC1=O [compound 4] |  | > 100 |  | BEI (binding efficiency index) [3]: 2.86 |
| CC(=O)NCC(=O)N[C@]1(C)CCCCCCCC[C@@](C)(C(=O)N[C@@H](CC(C)C)C(=O)N[C@@H](CC(=O)O)C(=O)N[C@@H](CC(C)C)C(N)=O)NC(=O)[C@H](CC(=O)O)NC(=O)[C@H](CC(C)C)NC1=O [compound 5] | 12.75±0.003 |  | 1.26 | Δlog D relative to 7 (H/H) ([2]; pH 7.4): 0.63 |
| CC(C)C[C@H](NC(=O)[C@H](CC(=O)O)NC(=O)[C@H](CC(C)C)NC(=O)[C@]1(C)CCCCCCCC[C@@](C)(NC(=O)COCCOCCNC(=S)Nc2ccc3c(c2)C(=O)OC32c3ccc(O)cc3Oc3cc(O)ccc32)C(=O)N[C@@H](CC(C)C)C(=O)N[C@@H](CC(=O)O)C(=O)N1)C(N)=O [compound 6] |  | 12.3 |  | BEI (binding efficiency index) [3]: 3.70 |
| CC(=O)NCC(=O)N[C@@H]1CCCCCCCC[C@@H](C(=O)N[C@@H](CC(C)C)C(=O)N[C@@H](CC(=O)O)C(=O)N[C@@H](CC(C)C)C(N)=O)NC(=O)[C@H](CC(=O)O)NC(=O)[C@H](CC(C)C)NC1=O [compound 7] | 11.70±0.007 |  | 0.63 ± 0.019 |  |
| CC(=O)NCC(=O)N[C@@H]1CCCCCCCC[C@@](C)(C(=O)N[C@@H](CC(C)C)C(=O)N[C@@H](CC(=O)O)C(=O)N[C@@H](CC(C)C)C(N)=O)NC(=O)[C@H](CC(=O)O)NC(=O)[C@H](CC(C)C)NC1=O [compound 8] | 12.37±0.003 |  |  | LogD ([2]; pH 7.4): 1.03±0.031 |
| CC(=O)NCC(=O)N[C@]1(C)CCCCCCCC[C@@H](C(=O)N[C@@H](CC(C)C)C(=O)N[C@@H](CC(=O)O)C(=O)N[C@@H](CC(C)C)C(N)=O)NC(=O)[C@H](CC(=O)O)NC(=O)[C@H](CC(C)C)NC1=O [compound 9] | 12.35±0.003 |  | 1.01 ± 0.031 | Ki [4]: > 31.6 µM |
| CC[C@@]1(C(=O)N[C@@H](CC(C)C)C(=O)N[C@@H](CC(=O)O)C(=O)N[C@@H](CC(C)C)C(N)=O)CCCCCCCC[C@@](C)(NC(=O)CNC(C)=O)C(=O)N[C@@H](CC(C)C)C(=O)N[C@@H](CC(=O)O)C(=O)N1 [compound 10] | 12.78±0.009 |  | 1.28 ± 0.04 |  |
| CC[C@@]1(NC(=O)CNC(C)=O)CCCCCCCC[C@@](C)(C(=O)N[C@@H](CC(C)C)C(=O)N[C@@H](CC(=O)O)C(=O)N[C@@H](CC(C)C)C(N)=O)NC(=O)[C@H](CC(=O)O)NC(=O)[C@H](CC(C)C)NC1=O [compound 11] | 12.88±0.003 |  | 1.33 ± 0.041 |  |
| CC[C@@]1(NC(=O)CNC(C)=O)CCCCCCCC[C@@](CC)(C(=O)N[C@@H](CC(C)C)C(=O)N[C@@H](CC(=O)O)C(=O)N[C@@H](CC(C)C)C(N)=O)NC(=O)[C@H](CC(=O)O)NC(=O)[C@H](CC(C)C)NC1=O [compound 12] | 12.92±0.001 |  | 1.35 | Δlog D relative to 5 (Me/Me) ([2]; pH 7.4): 0.09 |
